Measured values taken from patent US20040038222A1 (priority 2001, published 2004).

Tested on: C57BL/6J and C3H/HeJ primary bone marrow-derived macrophages

brefeldin A [BFA]
Effect of BFA alone on viability: no effect
Susceptibility of resistant macrophages to intoxication with LF in the presence of BFA: completely susceptible
